Patent US5041567A, “Antibacterial monic acid derivatives” (Beecham Group plc, priority 1982, dated 1991)
≈ marks a conversion by molar mass, not a printed value. Like-named read-outs stand apart in the source and are kept apart here.

Legend:
[1] = system: M. suipneumoniae ATCC 25095; assay: MIC against mycoplasma in vitro; assay type: cell-based; conditions: Mesomycoplasma hyopneumoniae, ATCC25095, 144 h; M. suipneumoniae ATCC 25095; 6 days, 37° C.; read-out: MIC
[2] = system: S. dublin S7; assay: MIC against veterinary bacteria in vitro; conditions: Salmonella enterica, S7, 18 h
Description: (§1) The activity of the compounds of the Examples against various veterinarily important bacteria, was assayed in vitro using two-fold serial dilutions in Diagnostic Sensitivity Test Agar inoculated with 10^4 organisms.

[3] = system: Bord. bronchiseptica B08; assay: MIC against veterinary bacteria in vitro; conditions: Bordetella bronchiseptica, B08, 18 h
Description: as §1

[4] = system: M. suipneumoniae TAM 6N; assay: MIC against mycoplasma in vitro; assay type: cell-based; conditions: Mesomycoplasma hyopneumoniae, TAM6N, 144 h; M. suipneumoniae TAM 6N; 6 days, 37° C.; read-out: MIC
[5] = system: Staph. aureus Oxford; assay: MIC against veterinary bacteria in vitro; conditions: Staphylococcus aureus, 18 h
Description: as §1

[6] = system: Strep. spp. 64/848-C; assay: MIC against human bacteria in vitro; assay type: cell-based; conditions: Strep. spp. 64/848-C; 5% chocolated horse blood agar, 18 hours; read-out: MIC
[7] = system: M. bovigenitalium ATCC 14173; assay: MIC against mycoplasma in vitro; assay type: cell-based; conditions: 144 h
[8] = system: Sarcina lutea 8340; assay: MIC against human bacteria in vitro; assay type: cell-based; conditions: Micrococcus luteus; Sarcina lutea 8340; 5% chocolated horse blood agar, 18 hours; read-out: MIC
[9] = system: Erysipelothrix rhusiopathiae NCTC 8163; assay: MIC against veterinary bacteria in vitro; conditions: Erysipelothrix rhusiopathiae, NCTC8163, 18 h
Description: as §1

[10] = system: Staph. aureus 152 (pen. sens); assay: MIC against veterinary bacteria in vitro; conditions: Staphylococcus aureus, 18 h
Description: as §1

[11] = system: M. gallisepticum S6; assay: MIC against mycoplasma in vitro; assay type: cell-based; conditions: Mycoplasmoides gallisepticum, 144 h; M. gallisepticum S6; 6 days, 37° C.; read-out: MIC
[12] = system: Pasteurella multocida 1633; assay: MIC against human bacteria in vitro; assay type: cell-based; conditions: Pasteurella multocida 1633; 5% chocolated horse blood agar, 18 hours; read-out: MIC
[13] = system: E. coli ESS; assay: MIC against human bacteria in vitro; assay type: cell-based; conditions: Escherichia coli
[14] = system: Past. multocida PA2; assay: MIC against veterinary bacteria in vitro; conditions: Pasteurella multocida, PA2, 18 h
Description: as §1

[15] = system: Haemophilus influenzae Wy21; assay: MIC against human bacteria in vitro; assay type: cell-based; conditions: Haemophilus influenzae Wy21; 5% chocolated horse blood agar, 18 hours; read-out: MIC
[16] = system: M. hyorhinis ATCC 23234; assay: MIC against mycoplasma in vitro; assay type: cell-based; conditions: Mesomycoplasma hyorhinis, ATCC23234, 144 h; M. hyorhinis ATCC 23234; 6 days, 37° C.; read-out: MIC
[17] = system: E. coli NCTC 10418; assay: MIC against veterinary bacteria in vitro; conditions: Escherichia coli, NCTC10418, 18 h
Description: as §1

[18] = system: S. typhimurium S18; assay: MIC against veterinary bacteria in vitro; conditions: Salmonella enterica, TYPHIMURIUM, 18 h
Description: as §1

[19] = system: M. suipneumoniae HK(2); assay: MIC against mycoplasma in vitro; assay type: cell-based; conditions: Mesomycoplasma hyopneumoniae, 144 h; M. suipneumoniae HK(2); 6 days, 37° C.; read-out: MIC
[20] = system: Strep. pneumoniae CN33; assay: MIC against human bacteria in vitro; assay type: cell-based; conditions: Streptococcus pneumoniae; Strep. pneumoniae CN33; 5% chocolated horse blood agar, 18 hours; read-out: MIC
[21] = system: Strep. agalactiae 2788-B; assay: MIC against human bacteria in vitro; assay type: cell-based; conditions: Streptococcus agalactiae; Strep. agalactiae 2788-B; 5% chocolated horse blood agar, 18 hours; read-out: MIC
[22] = system: Staph. aureus W2827; assay: MIC against human bacteria in vitro; assay type: cell-based; conditions: Staphylococcus aureus; Staph. aureus W2827; 5% chocolated horse blood agar, 18 hours; read-out: MIC
[23] = system: M. suipneumoniae UCD 1; assay: MIC against mycoplasma in vitro; assay type: cell-based; conditions: Mesomycoplasma hyopneumoniae, UCD1, 144 h; M. suipneumoniae UCD 1; 6 days, 37° C.; read-out: MIC
[24] = system: Ps. aeruginosa NCTC 10662; assay: MIC against human bacteria in vitro; assay type: cell-based; conditions: Pseudomonas aeruginosa, NCTC10662; Ps. aeruginosa NCTC 10662; 5% chocolated horse blood agar, 18 hours; read-out: MIC
[25] = system: M. suipneumoniae NB12; assay: MIC against mycoplasma in vitro; assay type: cell-based; conditions: Mesomycoplasma hyopneumoniae, 144 h; M. suipneumoniae NB12; Friis broth, 0.9% agarose, 6 days, 37° C.; read-out: MIC
[26] = system: M. suipneumoniae JF 435; assay: MIC against mycoplasma in vitro; assay type: cell-based; conditions: Mesomycoplasma hyopneumoniae, JF435, 144 h; M. suipneumoniae JF 435; 6 days, 37° C.; read-out: MIC
[27] = system: Staph. aureus Russell; assay: MIC against human bacteria in vitro; assay type: cell-based; conditions: Staphylococcus aureus; Staph. aureus Russell; 5% chocolated horse blood agar, 18 hours; read-out: MIC
[28] = system: M. suipneumoniae MS 16; assay: MIC against mycoplasma in vitro; assay type: cell-based; conditions: Mesomycoplasma hyopneumoniae, MS16, 144 h; M. suipneumoniae MS 16; 6 days, 37° C.; read-out: MIC
[29] = system: E. coli E1; assay: MIC against veterinary bacteria in vitro; conditions: Escherichia coli, E1, 18 h
Description: as §1

[30] = system: M. pneumoniae ATCC 15492; assay: MIC against mycoplasma in vitro; assay type: cell-based; conditions: Mycoplasmoides pneumoniae, ATCC15492, 144 h; M. pneumoniae ATCC 15492; 6 days, 37° C.; read-out: MIC
[31] = system: Bord. bronchiseptica B09; assay: MIC against veterinary bacteria in vitro; conditions: Bordetella bronchiseptica, B09, 18 h
Description: as §1

[32] = system: M. suipneumoniae NCTC 10110; assay: MIC against mycoplasma in vitro; assay type: cell-based; conditions: Mesomycoplasma hyopneumoniae, NCTC10110, 144 h; M. suipneumoniae NCTC 10110; 6 days, 37° C.; read-out: MIC
[33] = system: Strep. suis (group D) SPS11; assay: MIC against veterinary bacteria in vitro; conditions: Streptococcus suis, 18 h
Description: as §1

[34] = system: Strep. agalactiae SPA1; assay: MIC against veterinary bacteria in vitro; conditions: Streptococcus agalactiae, SPA1, 18 h
Description: as §1

[35] = M. bovigenitalium ATCC 14173, 6 days, 37° C., read-out: MIC
[36] = E. coli ESS, 5% chocolated horse blood agar, 18 hours, read-out: MIC

SMILES	MIC [1] [µg/mL]	MIC [2] [µg/mL]	MIC [3] [µg/mL]	MIC [4] [µg/mL]	MIC [5] [µg/mL]	MIC [6] [µg/mL]	MIC [8] [µg/mL]	MIC [9] [µg/mL]	MIC [10] [µg/mL]	MIC [11] [µg/mL]	MIC [12] [µg/mL]	MIC [14] [µg/mL]	MIC [15] [µg/mL]	MIC [16] [µg/mL]	MIC [17] [µg/mL]	MIC [18] [µg/mL]	MIC [19] [µg/mL]	MIC [20] [µg/mL]	MIC [21] [µg/mL]	MIC [22] [µg/mL]	other results
C/C(=C\c1ncc(CCCCCCCC(=O)O)o1)C[C@@H]1OC[C@H](C[C@@H]2O[C@H]2[C@@H](C)[C@H](C)O)[C@@H](O)[C@H]1O [Example 12, Sodium 8-[2-(1-normon-2-yl)-5-oxazolyl]-octanoate A]	10	> 40	> 40	> 10	0.625	4	> 16	> 40	0.625	> 10	4	0.156	2	5	> 40	> 40	> 10	16	16	8	MIC [7, 35]: 1 µg/mL; MIC [13, 36]: > 16 µg/mL; MIC [23]: > 10 µg/mL; MIC [24]: > 16 µg/mL; MIC [25]: > 10 µg/mL; MIC [26]: > 10 µg/mL; MIC [27]: 8 µg/mL; MIC [28]: 10 µg/mL; MIC [29]: > 40 µg/mL; MIC [30]: > 10 µg/mL; MIC [31]: 20 µg/mL; MIC [32]: > 10 µg/mL; MIC [33]: 20 µg/mL; MIC [34]: 20 µg/mL
C/C(=C\c1ncc(-c2ccccc2)s1)C[C@@H]1OC[C@H](C[C@@H]2O[C@H]2[C@@H](C)[C@H](C)O)[C@@H](O)[C@H]1O [Example 29, 2-(1-Normon-2-yl)-5-phenylthiazole A]	10 (≈ 21.8 µM)	> 80	> 80	> 10	10 (≈ 21.8 µM)	25 (≈ 54.4 µM)	> 100	> 80	10 (≈ 21.8 µM)	> 10	> 100	80 (≈ 174 µM)	50 (≈ 109 µM)	> 10	> 80	> 80	> 10	50 (≈ 109 µM)	50 (≈ 109 µM)	50 (≈ 109 µM)	MIC [7]: 1 µg/mL (≈ 2.18 µM); MIC ([13]; 18 h): > 100 µg/mL; MIC [23]: > 10 µg/mL; MIC [24]: > 100 µg/mL; MIC [25]: 10 µg/mL (≈ 21.8 µM); MIC [26]: > 10 µg/mL; MIC [27]: 100 µg/mL (≈ 218 µM); MIC [28]: 10 µg/mL (≈ 21.8 µM); MIC [29]: > 80 µg/mL; MIC [30]: > 10 µg/mL; MIC [31]: > 80 µg/mL; MIC [32]: > 10 µg/mL; MIC [33]: > 80 µg/mL; MIC [34]: 40 µg/mL (≈ 87 µM)
C/C(=C\c1ncc(-c2ccc([N+](=O)[O-])cc2)o1)C[C@@H]1OC[C@H](C[C@@H]2O[C@H]2[C@@H](C)[C@H](C)O)[C@@H](O)[C@H]1O [Example 3, 5-p-nitro-phenyl-2-(1-normon-2-yl)-oxazole A]	0.1 (≈ 0.205 µM)	> 80	40 (≈ 81.9 µM)	0.25 (≈ 0.512 µM)	0.312 (≈ 0.639 µM)	0.5 (≈ 1.02 µM)	> 100	> 80	0.312 (≈ 0.639 µM)	0.5 (≈ 1.02 µM)	0.5 (≈ 1.02 µM)	0.625 (≈ 1.28 µM)	0.1 (≈ 0.205 µM)	0.1 (≈ 0.205 µM)	> 80	> 80	0.25 (≈ 0.512 µM)	0.5 (≈ 1.02 µM)	0.5 (≈ 1.02 µM)	1 (≈ 2.05 µM)	MIC [7, 35]: 0.05 µg/mL (≈ 0.102 µM); MIC [13, 36]: 0.5 µg/mL (≈ 1.02 µM); MIC [23]: 0.25 µg/mL (≈ 0.512 µM); MIC [24]: > 100 µg/mL; MIC [25]: 0.1 µg/mL (≈ 0.205 µM); MIC [26]: 0.25 µg/mL (≈ 0.512 µM); MIC [27]: 5 µg/mL (≈ 10.2 µM); MIC [28]: 0.05 µg/mL (≈ 0.102 µM); MIC [29]: > 80 µg/mL; MIC [30]: 0.5 µg/mL (≈ 1.02 µM); MIC [31]: 5 µg/mL (≈ 10.2 µM); MIC [32]: 0.25 µg/mL (≈ 0.512 µM); MIC [33]: 2.5 µg/mL (≈ 5.12 µM); MIC [34]: 1.25 µg/mL (≈ 2.56 µM)
